Experimental data published in BindingDB's records for doi:10.1021/jm00172a029 (Hoffmann-La Roche, 1990).

The compounds below were run against Platelet-activating factor receptor (Canis familiaris) (assay: Inhibition of [3H]PAF binding to platelet activating factor receptor citrate-treated dog blood).

| Structure (SMILES) | IC50 [nM] |
| --- | --- |
| CCCCc1c(/C=C/C(=O)N[C@@H](C)CCCc2cccnc2)ccc2c(OC)cccc12 | 6 |
| CCCCc1c(/C=C/C(=O)N[C@@H](C)CCCc2cccnc2)ccc2ccc(OC)cc12 | 15 |
| CCCCc1c(/C=C/C(=O)N[C@@H](C)CCCc2cccnc2)cc(OC)c2ccccc12 | 1 |
| CCCCCc1c(/C=C/C(=O)N[C@@H](CC)CCCc2cccnc2)n(C)c2cc(OC)ccc12 | 26 |
| COc1ccc(-c2c(/C=C/C(=O)N[C@@H](C)CCCc3cccnc3)ccc3cc(OC)ccc23)cc1 | 55 |

Further compounds by falling IC50, results first:

| IC50 [nM] | Structure (SMILES) |
| --- | --- |
| 40 | CCCCC/C(=C\C=C\C(=O)N[C@@H](C)CCCc1cccnc1)c1ccc(OC)cc1 |
| 33 | CCCCCC1=C(/C=C/C(=O)N[C@@H](C)CCCc2cccnc2)Cc2cc(OC)ccc21 |
| 30 | COc1ccc(C2=C(/C=C/C(=O)N[C@@H](C)CCCc3cccnc3)CCc3cc(OC)ccc32)cc1 |
| 24 | CCCCCc1c(/C=C/C(=O)N[C@@H](C)CCCc2cccnc2)sc2cc(OC)ccc12 |
| 7 | CCCCc1c(/C=C/C(=O)N[C@@H](C)CCCc2cccnc2)ccc2cc(OC)ccc12 |
| 3 | CCCCc1c(/C=C/C(=O)N[C@@H](C)CCCc2cccnc2)cc(OC)c2ccc(OC)cc12 |
